Source: US12673954B2 (BRISTOL-MYERS SQUIBB COMPANY, priority 2021, dated 2026)
Like-named read-outs stand apart in the source and are kept apart here.

How the values were obtained:
[1] = test system: IRF pathway, THP1-Dual™ cells; experiment: STING reporter assay in THP1-Dual cells, IRF pathway (Lucia luciferase, QUANTI-Luc); format: cell-based, human; details: THP1-Dual cells, 10% human plasma, 20 hours, Lucia luciferase, 100% activation = 100 μM cGAMP, read-out: IRF (EC50 μM)
Procedure, shortened: (§1)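 Activation normalised between DMSO-only baseline and 100 μM cGAMP maximum, after 20 h compound exposure (starting at 100 μM final) at 37° C, 5% CO2. Supernatant SEAP (QUANTI-Blue, OD620) reports NF-κB; secreted luciferase (QUANTI-Luc, RLU at 5 min) reports IRF.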

[2] = test system: NF-κB pathway, THP1-Dual™ cells; experiment: STING reporter assay in THP1-Dual cells, NF-κB pathway (SEAP, QUANTI-Blue); format: cell-based, human; details: THP1-Dual cells, 10% human plasma, 20 hours, SEAP, 100% activation = 100 μM cGAMP, read-out: NFkB (EC50 μM)
Procedure, shortened: as §1

| EC50 ([1]; Homo sapiens, THP1-Dual, 20 h) [µM] | EC50 ([2]; Homo sapiens, THP1-Dual, 20 h) [µM] | EC50 [1] [µM] | EC50 [2] [µM] | SMILES |
| --- | --- | --- | --- | --- |
| 9 | 13 | – | – | CC(C)(C)OC(=O)N1CC(OC(=O)c2cc(Cl)cc3cc(CNC(=O)c4cnn5cccnc45)oc23)C1 [EXAMPLE 247, Tert-butyl 3-((5-chloro-2-((pyrazolo[1,5-a]pyrimidine-3-carboxamido)methyl)benzofuran-7-carbonyl)oxy)azetidine-1-carboxylate] |
| 1.7 | 1.7 | – | – | O=C(NCc1cc2cc(Cl)cc(C(=O)OCC(F)(F)F)c2o1)c1cncc2[nH]cnc12 [EXAMPLE 264, 2,2,2-Trifluoroethyl 2-((3H-imidazo[4,5-c]pyridine-7-carboxamido)methyl)-5-chlorobenzofuran-7-carboxylate] |
| 2.1 | 1.9 | – | – | CSC(=O)c1cc(Cl)cc2cc(CNC(=O)c3cnn4cccnc34)oc12 [EXAMPLE 395] |
| – | – | 1.4 | 1.3 | CC(OC(=O)c1cc(F)cc2cc(CNC(=O)c3cnn4cccnc34)oc12)C(F)(F)F (single isomer, unassigned) [EXAMPLE 317, 1,1,1-Trifluoropropan-2-yl 5-fluoro-2-((pyrazolo[1,5-a]pyrimidine-3-carboxamido)methyl)benzofuran-7-carboxylate] |
| 1.1 | 1 | – | – | O=C(OC(CF)CF)c1cc(Cl)cc2cc(CNC(=O)c3cnn4cccnc34)oc12 [EXAMPLE 246, 1,3-Difluoropropan-2-yl 5-chloro-2-((pyrazolo[1,5-a]pyrimidine-3-carboxamido)methyl)benzofuran-7-carboxylate] |
| 7.5 | 9.5 | – | – | C[C@@H](OC(=O)Cc1cc(F)cc2cc(CNC(=O)c3cnn4cccnc34)oc12)C(F)(F)F [EXAMPLE 367, (R)-1,1,1-Trifluoropropan-2-yl 2-(5-fluoro-2-((pyrazolo[1,5-a]pyrimidine-3-carboxamido)methyl)benzofuran-7-yl)acetate] |
| 0.36 | 0.36 | – | – | C[C@@H](OC(=O)c1cc(F)cc2c(Cl)c(CNC(=O)c3cnn4cccnc34)oc12)C(F)(F)F [EXAMPLE 288, (R)-1,1,1-Trifluoropropan-2-yl 3-chloro-5-fluoro-2-((pyrazolo[1,5-a]pyrimidine-3-carboxamido)methyl)benzofuran-7-carboxylate] |
| 4.4 | 3.8 | – | – | C[C@H](NC(=O)c1cnn2cccnc12)c1oc2c(C(=O)O[C@H](C)C(F)(F)F)cc(F)cc2c1Cl [EXAMPLE 293, (R)-1,1,1-Trifluoropropan-2-yl 3-chloro-5-fluoro-2-((S)-1-(pyrazolo[1,5-a]pyrimidine-3-carboxamido)ethyl)benzofuran-7-carboxylate] |
| 2.9 | 3.1 | – | – | COC(=O)c1cc(Cl)cc2c(C(F)(F)F)c(CNC(=O)c3cnn4cccnc34)oc12 [EXAMPLE 116, Methyl 5-chloro-2-((pyrazolo[1,5-a]pyrimidine-3-carboxamido)methyl)-3-(trifluoromethyl)benzofuran-7-carboxylate] |
| 2.6 | 2.6 | – | – | COC(=O)c1cc(C)cc2c(Cl)c(CNC(=O)c3cnn4cc(C)cnc34)oc12 [EXAMPLE 119, Methyl 3-chloro-5-methyl-2-((6-methylpyrazolo[1,5-a]pyrimidine-3-carboxamido)methyl)benzofuran-7-carboxylate] |
| – | – | 0.63 | 0.76 | COC(OC(=O)c1cc(C)cc2cc(CNC(=O)c3cnn4cccnc34)oc12)C(F)(F)F (single isomer, unassigned) [EXAMPLE 344, 2,2,2-Trifluoro-1-methoxyethyl 5-methyl-2-((pyrazolo[1,5-a]pyrimidine-3-carboxamido)methyl)benzofuran-7-carboxylate] |
| 3 | 4.1 | – | – | COC(=O)c1cc(Cl)cc2cc(Cn3cnc4ccncc4c3=O)oc12 [Example 76, Methyl 5-chloro-2-((4-oxopyrido[4,3-d]pyrimidin-3(4H)-yl)methyl)benzofuran-7-carboxylate] |
| – | – | 21 | 21 | COC(=O)c1cc(Cl)cc2cc(CNC(=O)c3cncc(Cl)n3)oc12 [Example 61, Methyl 5-chloro-2-((6-chloropyrazine-2-carboxamido)methyl) benzofuran-7-carboxylate] |
| 0.46 | 0.47 | – | – | CSC(=O)c1cc(C)cc2c(Cl)c(CNC(=O)c3cnn4cccnc34)oc12 [EXAMPLE 397] |
| – | – | 1.1 | 1.1 | COC(OC(=O)c1cc(Cl)cc2cc(CNC(=O)c3cnn4cccnc34)oc12)C(F)(F)F (single isomer, unassigned) [EXAMPLE 332, 2,2,2-Trifluoro-1-methoxyethyl 5-chloro-2-((pyrazolo[1,5-a]pyrimidine-3-carboxamido)methyl)benzofuran-7-carboxylate] |
| 79 | 97 | – | – | COC(=O)c1cccc2cc(Cn3cccc(C#N)c3=O)oc12 [EXAMPLE 18, Methyl 2-((3-cyano-2-oxopyridin-1(2H)-yl)methyl)benzofuran-7-carboxylate] |
| 2.3 | 2.5 | – | – | COC(=O)c1cc(F)cc2cc(Cn3ccc4ccncc4c3=O)oc12 [EXAMPLE 38, Methyl 5-fluoro-2-((1-oxo-2,7-naphthyridin-2(1H)-yl)methyl)benzofuran-7-carboxylate] |
| 3.7 | 6 | – | – | COC(=O)c1cc(C)cc2cc(CNC(=O)c3c(N)nn4cccnc34)oc12 [Example 93, Methyl 2-((2-aminopyrazolo[1,5-a]pyrimidine-3-carboxamido)methyl)-5-methylbenzofuran-7-carboxylate] |
| 3 | 3.1 | – | – | COC(=O)c1cc(Cl)cc2cc(CNC(=O)c3cncn(C)c3=O)oc12 [Example 65, Methyl 5-chloro-2-((1-methyl-6-oxo-1,6-dihydropyrimidine-5-carboxamido)methyl)benzofuran-7-carboxylate] |
| 30 | 37 | – | – | Cc1cc(C(=O)NO)c2oc(CNC(=O)c3cnn4cccnc34)c(Cl)c2c1 [EXAMPLE 407, N-((3-chloro-7-(hydroxycarbamoyl)-5-methylbenzofuran-2-yl)methyl)pyrazolo[1,5-a]pyrimidine-3-carboxamide] |
| 11 | 16 | – | – | COC(=O)c1ccc(OC)c2cc(CNC(=O)c3cnn4cccnc34)oc12 [EXAMPLE 33, Methyl 4-methoxy-2-((pyrazolo[1,5-a]pyrimidine-3-carboxamido)methyl)benzofuran-7-carboxylate] |
| 0.62 | 0.71 | – | – | C[C@H](OC(=O)c1cc(F)cc2c(Cl)c(CNC(=O)c3cnn4cccnc34)oc12)C(F)(F)F [EXAMPLE 289, (S)-1,1,1-Trifluoropropan-2-yl 3-chloro-5-fluoro-2-((pyrazolo[1,5-a]pyrimidine-3-carboxamido)methyl)benzofuran-7-carboxylate] |
| – | – | 4.8 | 5.9 | CC(OC(=O)c1cc(F)cc2cc(CNC(=O)c3cnc4cccnn34)oc12)C(F)(F)F (single isomer, unassigned) [EXAMPLE 316, 1,1,1-Trifluoropropan-2-yl 5-fluoro-2-((imidazo[1,2-b]pyridazine-3-carboxamido)methyl)benzofuran-7-carboxylate] |

| SMILES | EC50 ([1]; Homo sapiens, THP1-Dual, 20 h) [µM] | EC50 ([2]; Homo sapiens, THP1-Dual, 20 h) [µM] | EC50 [1] [µM] | EC50 [2] [µM] |
| --- | --- | --- | --- | --- |
| COC(=O)c1cccc2cc(CNC(=O)c3cnn4c(C)ccnc34)oc12 [EXAMPLE 12, Methyl 2-((7-methylpyrazolo[1,5-a]pyrimidine-3-carboxamido)methyl) benzofuran-7-carboxylate] | – | – | 33 | 39 |
